“And” between values parts separate entries of the source, which are not always exact repeats. Equal values may be shown once. Inconclusive results and toxic doses are left out.

The subject of the experiment is P388 leukemia ip, CD2F1 mice, survival T/C. Put plainly: NCI In Vivo Anticancer Drug Screen. Data for tumor model P388 Leukemia (intraperitoneal) in CD2F1 (CDF1) mice. The conditions noted are these: endpoint: median survival time, higher = longer survival. The method in brief:
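Mice carrying the transplanted tumor received test compound or vehicle. Survival was recorded in each group, and the value is the treated-group measurement divided by that of the vehicle-treated control group.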

Setting [1] is: dose: 60.0 mg/kg/injection, schedule: Q01DX005 (ip), vehicle: saline with Tween-80.
The mark [2] stands for this setting: dose: 120.0 mg/kg/injection, schedule: Q01DX005 (ip), vehicle: saline with Tween-80.
The mark [3] stands for this setting: dose: 240.0 mg/kg/injection, schedule: Q01DX005 (ip), vehicle: saline with Tween-80.
The mark [4] stands for this setting: dose: 6.25 mg/kg/injection, schedule: Q01DX009 (ip), vehicle: saline with Tween-80.
The mark [5] stands for this setting: dose: 12.5 mg/kg/injection, schedule: Q01DX009 (ip), vehicle: saline with Tween-80.
[6] abbreviates: dose: 25.0 mg/kg/injection, schedule: Q01DX009 (ip), vehicle: saline with Tween-80.
The mark [7] stands for this setting: dose: 50.0 mg/kg/injection, schedule: Q01DX009 (ip), vehicle: saline.
The mark [8] stands for this setting: dose: 100.0 mg/kg/injection, schedule: Q01DX009 (ip), vehicle: saline.
The mark [9] stands for this setting: dose: 200.0 mg/kg/injection, schedule: Q01DX009 (ip), vehicle: saline.
Setting [10] is: dose: 50.0 mg/kg/injection, schedule: Q01DX009 (ip), vehicle: saline with Tween-80.
Where [11] appears, read: dose: 50.0 mg/kg/injection, schedule: Q01DX005 (ip), vehicle: Klucel (hydroxypropylcellulose) (HPC).
[12] abbreviates: dose: 100.0 mg/kg/injection, schedule: Q01DX005 (ip), vehicle: Klucel (hydroxypropylcellulose) (HPC).

Consider `c1ccc(N=Nc2ccc3ns[s+]c3c2)cc1`, for which the T/C is 92 % of control under setting [1], 95 % of control under setting [2] and 103 % of control under setting [3].

For `COC(=O)CCC1=CC(=O)C(OC)=CC1=O`, the T/C runs as follows: under setting [4], 110 % of control; under setting [5], 97 % of control; under setting [6], 99 % of control.

As to `CC(=O)Oc1ccc(C2COc3cc(OC(C)=O)c(OC(C)=O)cc3C2)cc1` (centres undefined), the T/C is, setting by setting: under setting [1], 104 % of control; under setting [2], 104 % of control; under setting [3], 104 % of control.

On to `CC(=O)Nc1cnc2c(nc3cc(C)ccn32)c1C`, for which the T/C runs as follows: under setting [1], 106 % of control; under setting [2], 100 % of control; under setting [3], 97 % of control.

With `NS(=O)(=O)c1ccc(NCc2c3ccccc3nc3cc(Cl)ccc23)cc1`, the T/C is, setting by setting: under setting [1], 104 % of control; under setting [2], 95 % of control; under setting [3], 94 % of control.

Regarding `CCC(C)NCC/C(=C\[Si](C)(C)C)c1ccccc1` (centres undefined), the T/C reads like this: (dose: 100.0 mg/kg/injection, schedule: Q01DX001 (ip), vehicle: saline with Tween-80) 100 % of control; (dose: 200.0 mg/kg/injection, schedule: Q01DX001 (ip), vehicle: saline with Tween-80) 106 % of control.

For `C1CNCCSCCCSCCNC1`, the T/C by setting is: (dose: 25.0 mg/kg/injection, schedule: Q01DX009 (ip), vehicle: saline) 100 % of control; under setting [7], 98 % of control; under setting [8], 89 % of control; under setting [9], 87 % of control.

Turning to `COc1cccc(N=Nc2c(-c3ccccc3)nn(C(N)=S)c2-c2ccccc2)c1`, the T/C reads like this: (dose: 100.0 mg/kg/injection, schedule: Q04DX002 (ip), vehicle: saline with Tween-80) 98 % of control; (dose: 200.0 mg/kg/injection, schedule: Q04DX002 (ip), vehicle: saline with Tween-80) 95 % of control; (dose: 400.0 mg/kg/injection, schedule: Q04DX002 (ip), vehicle: saline with Tween-80) 88 % of control.

As for `O=C(Nc1cccc2ccccc12)c1cc2c(cc1Br)OCO2`, the T/C is 104 % of control (dose: 12.5 mg/kg/injection, schedule: Q01DX009 (ip), vehicle: distilled water + Tween-80); 95 % of control (dose: 25.0 mg/kg/injection, schedule: Q01DX009 (ip), vehicle: distilled water + Tween-80); 92 % of control (dose: 50.0 mg/kg/injection, schedule: Q01DX009 (ip), vehicle: distilled water + Tween-80); 90 % of control (dose: 200.0 mg/kg/injection, schedule: Q01DX009 (ip), vehicle: distilled water + Tween-80).

For `COc1cccc2c1OC1(N3CCOCC3)CCCCC1C2C[N+](=O)[O-]` (centres undefined), the T/C under setting [10] was 90 % of control; the T/C (dose: 100.0 mg/kg/injection, schedule: Q01DX009 (ip), vehicle: saline with Tween-80) is 93 % of control; the T/C (dose: 200.0 mg/kg/injection, schedule: Q01DX009 (ip), vehicle: saline with Tween-80) is 89 % of control.

In the case of `CN(C)c1ccc(/C=N/c2nc(-c3ccccc3)cs2)cc1`, the T/C runs as follows: under setting [7], 115 % of control; under setting [8], 111 % of control; under setting [9], 101 % of control.

Consider `O=[N+]([O-])c1c(Nc2ccccc2)n(-c2ccccc2)c2ccc(O)cc12`, for which the T/C is 92 % of control (dose: 3.12 mg/kg/injection, schedule: Q01DX005 (ip), vehicle: saline with Tween-80); 102 % of control (dose: 6.25 mg/kg/injection, schedule: Q01DX005 (ip), vehicle: saline with Tween-80); 90 % of control and 92 % of control (dose: 12.5 mg/kg/injection, schedule: Q01DX005 (ip), vehicle: saline with Tween-80); 86 % of control (dose: 50.0 mg/kg/injection, schedule: Q01DX005 (ip), vehicle: saline with Tween-80).

On to `NC(=O)C1=NOC(C(N)=O)C1C1OC(CO)C(O)C1O` (centres undefined), for which the T/C is, setting by setting: (dose: 25.0 mg/kg/injection, schedule: Q01DX005 (ip), vehicle: other) 98 % of control; (dose: 50.0 mg/kg/injection, schedule: Q01DX005 (ip), vehicle: other) 97 % of control; (dose: 100.0 mg/kg/injection, schedule: Q01DX005 (ip), vehicle: other) 95 % of control; (dose: 200.0 mg/kg/injection, schedule: Q01DX005 (ip), vehicle: other) 105 % of control.

Regarding `CCOC(=O)c1cnc[nH]c1=O`, the T/C (dose: 25.0 mg/kg/injection, schedule: Q04DX003 (ip), vehicle: saline with Tween-80) is 99 % of control; the T/C (dose: 50.0 mg/kg/injection, schedule: Q04DX003 (ip), vehicle: saline with Tween-80) is 100 % of control; the T/C (dose: 100.0 mg/kg/injection, schedule: Q04DX003 (ip), vehicle: saline with Tween-80) is 97 % of control; the T/C (dose: 200.0 mg/kg/injection, schedule: Q04DX003 (ip), vehicle: saline with Tween-80) was 97 % of control.

With `CC(C)(C)/C=C/N=NNc1ccccn1`, the T/C was 97 % of control (dose: 100.0 mg/kg/injection, schedule: Q01DX001 (ip), vehicle: Klucel (hydroxypropylcellulose) (HPC)); 92 % of control (dose: 200.0 mg/kg/injection, schedule: Q01DX001 (ip), vehicle: Klucel (hydroxypropylcellulose) (HPC)); 94 % of control (dose: 400.0 mg/kg/injection, schedule: Q01DX001 (ip), vehicle: Klucel (hydroxypropylcellulose) (HPC)).

`CCCCCCCCOC(=O)c1[nH]cnc1/N=N\N(C)C`: the T/C is, setting by setting: (dose: 100.0 mg/kg/injection, schedule: Q04DX003 (ip), vehicle: Klucel (hydroxypropylcellulose) (HPC)) 109 % of control; (dose: 200.0 mg/kg/injection, schedule: Q04DX003 (ip), vehicle: Klucel (hydroxypropylcellulose) (HPC)) 113 % of control; (dose: 400.0 mg/kg/injection, schedule: Q04DX003 (ip), vehicle: Klucel (hydroxypropylcellulose) (HPC)) 104 % of control.

Turning to `CSCCC(NC(=O)OCC1c2ccccc2-c2ccccc21)C(=O)O` (centres undefined), the T/C under setting [11] was 103 % of control and the T/C under setting [12] is 100 % of control.

Regarding `CC1(C)/C=C/C2=Nc3cc(Br)c(Br)c(Br)c3C23CC(=O)N3/C=C(\Cl)c2nc(Br)[nH]c21` (centres undefined), the T/C by setting is: (dose: 0.7 mg/kg/injection, schedule: Q01DX005 (ip), vehicle: Klucel (hydroxypropylcellulose) (HPC)) 106 % of control; (dose: 1.4 mg/kg/injection, schedule: Q01DX005 (ip), vehicle: Klucel (hydroxypropylcellulose) (HPC)) 101 % of control; (dose: 2.8 mg/kg/injection, schedule: Q01DX005 (ip), vehicle: Klucel (hydroxypropylcellulose) (HPC)) 97 % of control; (dose: 5.6 mg/kg/injection, schedule: Q01DX005 (ip), vehicle: Klucel (hydroxypropylcellulose) (HPC)) 112 % of control.

For `C=C1C(=O)OC2/C=C(\C)C(OC(C)=O)C3OC3C(C)(O)CC(OC(=O)/C(C)=C/C)C12` (centres undefined), the T/C (dose: 10.0 mg/kg/injection, schedule: Q01DX009 (ip), vehicle: saline with Tween-80) was 99 % of control; the T/C (dose: 20.0 mg/kg/injection, schedule: Q01DX009 (ip), vehicle: saline with Tween-80) is 104 % of control; the T/C (dose: 40.0 mg/kg/injection, schedule: Q01DX009 (ip), vehicle: saline with Tween-80) is 107 % of control.

Turning to `CS(=O)(=O)C(CCC(=O)C(c1ccccc1)c1ccccc1)C(=O)c1ccccc1` (centres undefined), the T/C is, setting by setting: under setting [11], 110 % of control; under setting [12], 109 % of control; (dose: 200.0 mg/kg/injection, schedule: Q01DX005 (ip), vehicle: Klucel (hydroxypropylcellulose) (HPC)) 93 % of control.

On to `Cc1c(NC(=S)Nc2ccc(Cl)c(Cl)c2)c(=O)n(-c2ccccc2)n1C`, for which the T/C is, setting by setting: (dose: 50.0 mg/kg/injection, schedule: Q01DX009 (ip), vehicle: Klucel (hydroxypropylcellulose) (HPC)) 106 % of control; (dose: 100.0 mg/kg/injection, schedule: Q01DX009 (ip), vehicle: Klucel (hydroxypropylcellulose) (HPC)) 93 % of control; (dose: 200.0 mg/kg/injection, schedule: Q01DX009 (ip), vehicle: Klucel (hydroxypropylcellulose) (HPC)) 88 % of control.

Turning to `NC(CSCc1ccc(N(CCCl)CCCl)cc1)C(=O)O` (centres undefined), the T/C runs as follows: (dose: 4.0 mg/kg/injection, schedule: Q01DX009 (ip), vehicle: saline with Tween-80) 172 % of control; (dose: 6.0 mg/kg/injection, schedule: Q01DX009 (ip), vehicle: saline with Tween-80) 218 % of control; under setting [4], 245 % of control; (dose: 9.0 mg/kg/injection, schedule: Q01DX009 (ip), vehicle: saline with Tween-80) 159 % of control.

For `CCCCCC(CN(C)C)C(=O)/C=C/c1ccc(Cl)cc1` (centres undefined), the T/C was 95 % of control under setting [5], 96 % of control under setting [6] and 113 % of control under setting [10].

The values above are taken from PubChem BioAssay AID330 (DTP/NCI, 2004).
